Our source for the IC50 and Activity values is ChEMBL document CHEMBL4819113, “Chemical modifications of ergostane-type triterpenoids from Antrodia camphorata and their cytotoxic activities” (Bioorg Med Chem Lett, 2021).

Molecules are shown by their SMILES.

Series [1] relates to SW480. Put plainly: Cytotoxicity against human SW480 cells by MTT assay. Type of series: functional, cell-based.
Series [2] deals with U-251. Put plainly: Cytotoxicity against human U-251 cells by MTT assay. Type of series: functional, cell-based.
The subject of series [3] is MCF7. Put plainly: Cytotoxicity against human MCF7 cells by MTT assay. The class given is functional, cell-based. For orientation: Formazan colour is commonly taken as a measure of viable cells.
The test system of series [4] is HL-60. Put plainly: Cytotoxicity against human HL-60 cells by MTT assay. The class given is functional, cell-based.
In series [5] the test system is L02. Nature of the series: Cytotoxicity against human L02 cells by MTT assay. Type of series: cell-based.
The subject of series [6] is SW480. Nature of the series: Cytotoxicity against human SW480 cells. The class given is functional, cell-based.
Series [7] deals with HL-60. Nature of the series: Cytotoxicity against human HL-60 cells. Type of series: functional, cell-based.
In series [8] the test system is MCF7. Put plainly: Cytotoxicity against human MCF7 cells. The class given is functional, cell-based.
Series [9] relates to U-251. Nature of the series: Cytotoxicity against human U-251 cells. Type of series: functional, cell-based.

As to `C=C(CC[C@@H](C)[C@H]1CC[C@H]2C3=C(C(=O)C[C@]12C)[C@@]1(C)CCC(=O)[C@@H](C)[C@@H]1C[C@H]3OC(C)=O)[C@H](C)C(=O)Nc1[nH]cnc1C(N)=O`, the IC50 (usually the concentration needed to halve the response being measured) in [1] is 17.9 µM; in series [2] it was 17.1 µM; in series [3] it was 17.6 µM; in series [4] it was above 100 µM.
Turning to `C=C(CC[C@@H](C)[C@H]1CC[C@H]2C3=C(C(=O)C[C@]12C)[C@@]1(C)CC/C(=N\O)[C@@H](C)[C@@H]1C/C3=N/O)[C@H](C)C(=O)OC`, the IC50 was determined as 2.2 µM in series [1], 3.3 µM in series [2], 18.2 µM in [3] and 3.7 µM in series [4]. For the same molecule, the Activity entry in series [5] is on record as “Non-Toxic”.
`C=C(CC[C@@H](C)[C@H]1CC[C@H]2C3=C(C(=O)C[C@]12C)[C@@]1(C)CCC(=O)[C@@H](C)[C@@H]1C[C@H]3OC(C)=O)[C@H](C)C(=O)Nc1ncc2ccccc2n1`: the IC50 is 40.8 µM in series [1], 2.9 µM in series [2], 8.6 µM in series [3] and 8.9 µM in series [4]. For the same molecule, the Activity entry in series [5] is “Non-Toxic”.
As to `C=C(CC[C@@H](C)[C@H]1CC[C@H]2C3=C(C(=O)C[C@]12C)[C@@]1(C)CCC(=O)[C@@H](C)[C@@H]1C[C@H]3OC(C)=O)[C@H](C)C(=O)Nc1ccc2ccccc2n1`, the IC50 in series [1] is above 100 µM; in series [2] it was 95.8 µM; in series [3], above 100 µM; in series [4], 96.3 µM.
As for `C=C(CC[C@@H](C)[C@H]1CC[C@H]2C3=C(C(=O)C[C@]12C)[C@@]1(C)CCC(=O)[C@@H](C)[C@@H]1C[C@H]3OC(C)=O)[C@H](C)C(=O)Nc1ccc2[nH]ccc2c1`, the IC50 is above 100 µM in series [1], 10.4 µM in series [2], 12.3 µM in series [3] and above 100 µM in series [4].
With `C=C(CC[C@@H](C)[C@H]1CC[C@H]2C3=C(C(=O)C[C@]12C)[C@@]1(C)CCC(=O)[C@@H](C)[C@@H]1C[C@H]3OC(C)=O)[C@H](C)C(=O)OC`, the IC50 in series [6] was determined as 15.4 µM; in series [7] it was 16.8 µM; in [8], 46.3 µM; in series [9], 11.4 µM.
The corresponding values for `C=C(CC[C@@H](C)[C@H]1CC[C@H]2C3=C(C(=O)C[C@]12C)[C@@]1(C)CCC(=O)[C@@H](C)[C@@H]1CC3=O)[C@H](C)C(=O)OC` are above 100 µM, 25.2 µM, 50.7 µM and 44.9 µM.
As for `C=C(CC[C@@H](C)[C@H]1CC[C@H]2C3=C(C(=O)C[C@]12C)[C@@]1(C)CCC(=O)[C@@H](C)[C@@H]1C[C@H]3OC(C)=O)[C@H](C)C(=O)/N=c1/cc(CCc2ccccc2)[nH][nH]1`, the IC50 in series [1], in series [2], in series [3] and in series [4] was above 100 µM in each case.
Consider `C=C(CC[C@@H](C)[C@H]1CC[C@H]2C3=C(C(=O)C[C@]12C)[C@@]1(C)CCC(=O)[C@@H](C)[C@@H]1C[C@H]3OC(C)=O)[C@H](C)C(=O)Nc1cccc2cccnc12`, for which the IC50 in series [1] was above 100 µM; in series [2], above 100 µM; in series [3] it was above 100 µM; in series [4] it was 89.2 µM.
Turning to `C=C(CC[C@@H](C)[C@H]1CC[C@H]2C3=C(C(=O)C[C@]12C)[C@@]1(C)CCC(=O)[C@@H](C)[C@@H]1C[C@H]3OC(C)=O)[C@H](C)C(=O)Nc1nc[nH]n1`, the IC50 was above 100 µM in [1], 93.2 µM in series [2], above 100 µM in [3] and above 100 µM in series [4].
With `C=C(CC[C@@H](C)[C@H]1CC[C@H]2C3=C(C(=O)C[C@]12C)[C@@]1(C)CCC(=O)[C@@H](C)[C@@H]1C[C@H]3OC(C)=O)[C@H](C)C(=O)O`, the IC50 in [6], in [7], in series [8] and in series [9] was above 100 µM in each case.
As for `C=C(CC[C@@H](C)[C@H]1CC[C@H]2C3=C(C(=O)C[C@]12C)[C@@]1(C)CCC(=O)[C@@H](C)[C@@H]1C[C@H]3OC(C)=O)[C@H](C)C(=O)Nn1cnnc1`, the half-maximal inhibitory concentration (IC50) in series [1] was above 100 µM; in [2], 82.4 µM; in [3], above 100 µM; in [4], above 100 µM.
Consider `C=C(CC[C@@H](C)[C@H]1CC[C@H]2C3=C(C(=O)C[C@]12C)[C@@]1(C)CCC(=O)[C@@H](C)[C@@H]1C[C@H]3OC(C)=O)[C@H](C)C(=O)Nc1ccccc1N`, for which the IC50 in series [1] is above 100 µM; in series [2], 27.4 µM; in series [3], 29.2 µM; in series [4], 0.7 µM. Besides, the Activity result in series [5] was “Non-Toxic”.
For the molecule `C=C(CC[C@@H](C)[C@H]1CC[C@H]2C3=C(C(=O)C[C@]12C)[C@@]1(C)CCC(=O)[C@@H](C)[C@@H]1CC3=O)[C@H](C)C(=O)O` [ANTCIN B], the IC50 in series [6], in series [7], in series [8] and in series [9] was above 100 µM in each case.
Molecule `CC(=O)O[C@H]1C(=O)[C@@]2(C)[C@H]([C@H](OC(=O)c3ccccc3)[C@]3(O)C[C@H](OC(=O)[C@H](O)[C@@H](NC(=O)c4ccccc4)c4ccccc4)C(C)=C1C3(C)C)[C@]1(OC(C)=O)CO[C@@H]1C[C@@H]2O` [PACLITAXEL] had an IC50 in series [4] of 0.08 µM. This lies in the double-digit nanomolar range.
